How the values were obtained:
Assay type in all cases: cell-based, human
NEUROD1 [1] = assay: Activation of native gene expression in 293T cells, qPCR; settings: for induction of NEUROD1: 200 ng/mL doxycycline, NAVIa-edited 293T; for increase in NEUROD1 gene expression: idpTV-edited cells
Experimental: (§1) 293T and HCT116 cells were obtained from the American Tissue Collection Center (ATCC) and were maintained in DMEM supplemented with 10% fetal bovine serum and 1% penicillin/streptomycin at 37° C. with 5% CO2. 293T and HCT116 cells were transfected with Lipofectamine 2000 (Invitrogen) according to manufacturer's instructions. Transfection efficiencies were routinely higher than 80% for 293T cells and higher than 50% for HCT116 cells as determined by fluorescent microscopy following delivery of a control GFP expression plasmid. Induction of gene expression, unless otherwise noted, was carried out with 200 ng/mL doxycycline in DMEM prepared with 10% tetracycline-free FBS for 4 days.
(§2) Cells were harvested and flash-frozen in liquid nitrogen prior to RNA-extraction using the RNeasy Plus RNA isolation kit (Qiagen) according to manufacturer's instructions. cDNA synthesis was carried out using the qScript cDNA Synthesis Kit (Quanta Biosciences) from 1 μg of RNA and reactions were performed as directed by the supplier. For RT-qPCR, SsoFast EvaGreen Supermix (Bio-Rad) was added to cDNA and primers targeting the gene of interest and GAPDH (Table 10). Following 30 s at 95° C., qPCR (5 s at 95° C., 20 s at 55° C., 40 total cycles) preceded melt-curve analysis of the product by the CFX Connect Real-Time System (Bio-Rad). Ct values were used to calculate changes in expression level, relative to GAPDH and control samples by the 2^−ΔΔCt method.
In order to evaluate this gene activation architecture in the context of the human genome, three target genes were selected whose reported levels of activation utilizing CRISPRa are either high (ASCL1, ˜10^3-fold), medium (NEUROD1, ˜10^2-fold), or low (POU5F1, ˜10-fold). The primary sgRNAs targeting the genome were co-transfected into 293T cells with three plasmids containing (1) an expression cassette for active Cas9, (2) customized cspTV, cdpTV or idpTV, and (3) a universal secondary sgRNA. Following transfection, cells with integration of the TV were selected using puromycin and, in cells transfected with the idpTV, gene expression was induced with doxycycline. In parallel, one sgRNA or a mixture of 4 sgRNAs (previously validated for use with CRISPRa) were co-transfected into 293 Ts with dCas9-VPR for comparison of the NAVIa with CRISPRa. Gene expression using an individual sgRNA directing dCas9-VPR to target promoters was increased ˜10-fold for all targets tested but not statistically significant. Utilization of 4 sgRNAs simultaneously activated gene expression more effectively than 1 sgRNA (ASCL1: ˜1800-fold, NEUROD1: ˜2900-fold, POU5F:1 ˜90-fold). […] However, the idpTV (ASCL1: ˜7200-fold, NEUROD1: ˜76000-fold, POU5F1: ˜5370-fold) surpassed activation obtained using dCas9-VPR using 4 sgRNAs (FIG. 14B).

NEUROD1 [2] = assay: NEUROD1 expression by qPCR in HCT116 and MRC-5 cells
Experimental: as §1, §2
To further explore the trends we observed in 293T cells, NeuroD1 was targeted using the cdpTV in other cell lines.

HCT116 cells = assay: Quantification of integration efficiency (colonies after antibiotic selection); settings: for Avg. Colonies: 450,000 cells transfected
Experimental: HCT116 cells were transfected with individual RGNs targeting either CTTN exon 8 or HLA-DRA, as well as Cas9, one universal RGN, and either one or two transfer vectors with expression cassettes conferring resistance to puromycin or puromycin and hygromycin. A total of 450,000 cells were transfected using 100 ng of each plasmid. The transfection efficiency was ˜55% as determined by FACS following delivery of a control GFP expression plasmid. Three days post transfection, 90% of cells from each well were harvested and replated into 10 cm dishes for selection with the appropriate antibiotics. Cells with monoallelic modifications were selected with puromycin whereas cells with biallelic modifications were selected with puromycin and hygromycin. Media and antibiotics were replenished every three days. Visible colonies appeared after approximately after one week. The number of clones for each transfection was counted and integration efficiency was determined as the ratio of the number of clonal cells derived from each transfection relative to the number of alleles modified by each specific sgRNA, as measured in experimental control samples using the surveyor assay.
Following selection in 10-cm plates with the appropriate antibiotic, total colonies were counted and divided by total cells transfected to obtain the overall editing efficiency of NAVI. This value was then adjusted to account for overall sgRNA editing efficiency, as measured by surveyor nuclease assay. This quantification was performed at 2 different loci using either a single or two antibiotics for selection.

[3] = selection Puromycin + Hygromycin

Molecule	induction of NEUROD1 (NEUROD1 [1]; 12 h)	induction of NEUROD1 (NEUROD1 [1]; 24 h)	induction of NEUROD1 (NEUROD1 [1]; 48 h)	induction of NEUROD1 (NEUROD1 [1]; 96 h)	increase in NEUROD1 gene expression (NEUROD1 [1]; doxycycline 2 ng/mL, 96 h)	increase in NEUROD1 gene expression (NEUROD1 [1]; doxycycline 2 μg/mL, 96 h)	ratio of gene expression between samples with and without doxycycline treatment (NEUROD1 [2]; heterozygous clones)	ratio of gene expression between samples with and without doxycycline treatment (NEUROD1 [2]; homozygous clones)	ratio of gene expression between samples with and without doxycycline treatment (NEUROD1 [2]; pooled cells)	% Efficiency (adjusted by indel %) (HCT116 cells; selection Puromycin)	% Efficiency (colonies/transfected cells) (HCT116 cells; selection Puromycin)	% Efficiency (adjusted by indel %) (HCT116 cells; [3])	% Efficiency (colonies/transfected cells) (HCT116 cells; [3])	Avg. Colonies (HCT116 cells; [3])	Avg. Colonies (HCT116 cells; selection Puromycin)
C[C@H]1c2cccc(O)c2C(=O)C2=C(O)[C@]3(O)C(=O)C(C(N)=O)=C(O)[C@@H](N(C)C)[C@@H]3[C@@H](O)[C@@H]21 [doxycycline]	~4000 fold	~5000 fold	~10000 fold	~15000 fold	~337 fold	~26015 fold	~426 fold	~1486 fold	~22 fold						
CTTN exon 8: sgRNA, protospacer GCGCTCTTGTCTACTCGGT, SEQ ID NO 8 (expressed or natural sequence)										12.00%	0.38%	5.00%	0.16%	725	1726
HLA-DRA: sgRNA, protospacer GCTGTGCTGATGAGCGCTC, SEQ ID NO 9 (expressed or natural sequence)										26.40%	0.58%	4.60%	0.10%	453	2610
